Source: ChEMBL document CHEMBL1201862, “PubChem BioAssay data set” (2004)
Activity calls are given as the source filed them. Cut-off read from the data, not from the text of the source: actives have a measured IC50 and inactives only a lower limit.

Molecular target: Envelope glycoprotein gp160 (Human immunodeficiency virus 1, UniProt Q6QLK5)
Experiment: cell-free HIV fusion peptide-binding blockers – biochemical, uHTS, fluorescence dequenching, […] (AID 1986)

Envelope glycoprotein gp160, sequence (Q6QLK5 whole entry, the tested form may be a part): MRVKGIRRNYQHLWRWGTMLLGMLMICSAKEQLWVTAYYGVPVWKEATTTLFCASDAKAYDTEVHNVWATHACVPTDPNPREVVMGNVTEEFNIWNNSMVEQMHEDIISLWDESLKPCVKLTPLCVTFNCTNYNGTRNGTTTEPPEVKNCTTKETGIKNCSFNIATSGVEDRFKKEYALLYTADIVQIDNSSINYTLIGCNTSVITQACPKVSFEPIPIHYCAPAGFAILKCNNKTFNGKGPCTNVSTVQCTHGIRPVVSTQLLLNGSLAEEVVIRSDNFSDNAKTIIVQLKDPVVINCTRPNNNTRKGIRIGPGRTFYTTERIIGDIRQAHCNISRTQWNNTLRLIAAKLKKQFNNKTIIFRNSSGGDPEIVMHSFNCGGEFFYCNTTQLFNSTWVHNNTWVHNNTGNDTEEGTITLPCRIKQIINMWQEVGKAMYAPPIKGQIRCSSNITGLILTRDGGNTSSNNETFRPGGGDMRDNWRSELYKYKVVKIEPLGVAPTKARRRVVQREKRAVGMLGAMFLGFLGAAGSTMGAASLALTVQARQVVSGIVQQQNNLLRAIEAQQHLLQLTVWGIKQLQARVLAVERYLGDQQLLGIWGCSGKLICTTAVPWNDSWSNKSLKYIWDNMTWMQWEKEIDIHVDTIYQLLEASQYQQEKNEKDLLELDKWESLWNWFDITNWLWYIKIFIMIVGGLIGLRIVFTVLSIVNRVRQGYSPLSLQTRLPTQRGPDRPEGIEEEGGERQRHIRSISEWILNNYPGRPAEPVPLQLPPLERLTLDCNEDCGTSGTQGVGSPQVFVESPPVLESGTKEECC

Row | Structure (SMILES) | IC50
1 | O=C(O)CSc1nc(-c2ccc(Cl)cc2)nc2c1oc1ccccc12 | 15.4 µM (active)
2 | COc1cccc(-c2nc(SCC(=O)Nc3nc(-c4ccccc4)c(C)s3)[nH]c(=O)c2C#N)c1 | 10.3 µM (active)
